Assay results reported in PMC5607274, “An iterative compound screening contest method for identifying target protein inhibitors using the tyrosine-protein kinase Yes” (Scientific Reports, 2017).

Biological target: T1, human recombinant Yes [a.a. 2–543 (end)] (Homo sapiens, UniProt P07947)
T1 construct: human recombinant Yes [a.a; 2–543 (end)]; purchased BPS Bioscience 40488
Assay: ADP-Glo kinase assay, inhibition rates of Yes phosphorylation activity (first and second screening)
Format: biochemical
Conditions: 10 μmol L−1 compound; for First screening IR (inhibition rate): mean of n = 4 wells; for Second screening IR (inhibition rate): dissolved from fresh powder, n = 4
Summary of the method: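 Hits from a first pass were rescreened after re-dissolution from fresh powder. The first pass reported the mean inhibition rate of quadruplicate wells per compound. Activity was that of recombinant human Yes [a.a. 2–543] kinase, read out with the ADP-Glo ADP-detection method.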

T1 sequence (P07947 2-543): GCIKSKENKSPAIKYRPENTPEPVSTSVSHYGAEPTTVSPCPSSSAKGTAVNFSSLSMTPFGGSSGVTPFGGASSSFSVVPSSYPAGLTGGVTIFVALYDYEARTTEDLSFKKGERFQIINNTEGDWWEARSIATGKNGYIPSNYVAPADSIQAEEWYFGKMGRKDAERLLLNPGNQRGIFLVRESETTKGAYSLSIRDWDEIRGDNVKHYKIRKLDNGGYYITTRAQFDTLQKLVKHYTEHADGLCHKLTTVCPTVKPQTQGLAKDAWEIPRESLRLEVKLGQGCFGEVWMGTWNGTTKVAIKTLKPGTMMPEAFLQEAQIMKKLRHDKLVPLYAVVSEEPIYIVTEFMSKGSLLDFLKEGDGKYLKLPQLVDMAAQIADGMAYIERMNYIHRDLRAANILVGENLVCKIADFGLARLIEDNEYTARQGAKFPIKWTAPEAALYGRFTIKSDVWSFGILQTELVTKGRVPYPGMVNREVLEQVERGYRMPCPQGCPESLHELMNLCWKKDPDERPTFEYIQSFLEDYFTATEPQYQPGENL

Compound | First screening IR (inhibition rate) [%] | Second screening IR (inhibition rate) [%]
COc1ccc(/C=C/c2noc(C)c2NC(=O)c2cccs2)cc1 [Compound Z226257158] | 4 | 
CC(C)CN(C1CCS(=O)(=O)C1)S(=O)(=O)c1ccc(Cl)c(Cl)c1 (stereo not drawn) [Compound Z45480661] | 1 | 
Cc1c(-c2ccccc2)nc2ccc(Cl)cc2c1-c1ccccc1.Cl [Compound Z48950813] | 20 | 
O=C1CCCCCN1CCCNC(=O)N1CCN(S(=O)(=O)c2c(Cl)cccc2Cl)CC1 [Compound Z183473124] | -3 | 
O=C(Nc1ccccc1OC(F)F)c1ccc2c(c1)C(=O)N(Cc1ccncc1)C2=O [Compound Z27081729] | 20 | 
CCN(C1CCS(=O)(=O)C1)S(=O)(=O)c1ccc(Cl)c(Cl)c1 (stereo not drawn) [Compound Z45467101] | 12 | 
Cc1sc2nc(CN3CCC(C)CC3)nc(N3CCN(C(=O)c4ccccc4F)CC3)c2c1C [Compound Z275104396] | 0 | 
CC(NC(=O)C(NC(=O)c1ccco1)C(C)C)c1ccc(-n2ccnc2)cc1 (stereo not drawn) [Compound Z27306758] | 4 | 
O=C(Nc1nc2cc(C(F)(F)F)ccc2n1Cc1ccco1)c1ccc2n[nH]nc2c1 [Compound Z245503032] | 0 | 
Cc1ccc(C)c(C(=O)CCC(=O)NC(C)c2nc3ccccc3[nH]2)c1 (stereo not drawn) [Compound Z195395734] | 1 | 
C/C(N)=C(\C#N)C(=O)CSc1nnc(-c2ccccc2F)n1Cc1ccccc1 [Compound Z15780020] | -17 | 
CN(C)S(=O)(=O)c1ccc(Cl)c(S(=O)(=O)N(C)C)c1 [Compound Z56877204] | 7 | 
Cc1ccc(O)c(-c2cc(-c3ccccc3)c3cc(Cl)ccc3n2)c1.Cl [Compound Z48950854] | -11 | 
CN(C)c1ccc(C(CNc2ncccc2C#N)c2c[nH]c3ccccc23)cc1 (stereo not drawn) [Compound Z31123519] | 0 | 
COc1ccc(Cl)cc1CN(C)C(=O)c1cc(C(C)C)nc2c1cnn2C(C)C [Compound Z110143980] | -14 | 
CN(Cc1ccc(F)cc1F)C(=O)c1cc(-c2ccccc2)nc2c1cnn2Cc1ccncc1 [Compound Z283846026] | 11 | 
O=C(Cc1coc(-c2ccccc2)n1)Nc1ccc2ccccc2n1 [Compound Z167063860] | -6 | 
Cc1sc2ncnc(N/N=C/c3cccc(Br)c3)c2c1C [Compound Z49890557] | 5 | 
Cc1c(C#N)c(NC(=O)CN2CCN(Cc3nc4ccccc4s3)CC2)n(CC2CCCO2)c1C (stereo not drawn) [Compound Z125608446] | 12 | 
Cc1ccc(C)c(-n2c(=O)/c(=C/c3ccc(OC(F)F)cc3)s/c2=C(/C#N)C(=O)NCCN2CCOCC2)c1 [Compound Z47852683] | 15 | 

Compound | First screening IR (inhibition rate) [%] | Second screening IR (inhibition rate) [%]
COc1ccc(Nc2cc3c(nnn3-c3ccc(C)cc3)c3c2C(=O)c2ccccc2C3=O)cc1 [Compound Z56857974] | 2 | 
CCn1c(-c2ccccc2)c(C(=O)CSc2nnc(-c3cccnc3)n2N)c2ccccc21 [Compound Z54072868] | -13 | 
COc1cc(C)c(Sc2cnc(NC(=O)c3ccc(CCl)cc3)s2)cc1C(=O)N1CCN(C(C)=O)CC1 [Compound Z168829182] | 64 | 37
COC(=O)c1cc(-c2ccc(C)cc2)nc2c1cnn2C(C)C [Compound Z90671680] | 26 | 
O=C(O)c1c2c(nc3ccccc13)/C(=C\c1ccc(Cl)c(Cl)c1)CCC2 [Compound Z46035759] | 0 | 
COCCOC(=O)c1cc(-c2ccc(C)cc2)nc2c1cnn2C(C)C [Compound Z226924464] | 6 | 
Cl.Fc1c(-c2ccccc2)nc2ccccc2c1-c1ccccc1 [Compound Z223042658] | 30 | 
Cc1cc(C)c(NC(=O)c2cn3c4c(c(N5CCN(C)CC5)c(F)cc4c2=O)OCC3C)c(C)c1 (stereo not drawn) [Compound Z28129480] | 9 | 
COc1ccc(-n2c(-c3ccccc3)cn3c4c(=O)n(CCN5CCCCC5)c(=O)n(C)c4nc23)cc1 [Compound Z241121498] | -22 | 
Cc1ccc(NC(=O)CSc2ncnc3ccccc23)cc1F [Compound Z19314901] | 4 | 
Cc1ccccc1Nc1nc(N)nc(CSCc2ccc(Cl)cc2)n1 [Compound Z18432818] | 6 | 
CCCN(CCC)c1ccc(/C=C/C(=O)c2ccc3c(c2)NC(=O)CO3)cc1 [Compound Z114950486] | 26 | 
Cc1nn(CCc2nn[nH]n2)c2nc(-c3ccccc3)cc(C(F)(F)F)c12 [Compound Z55874741] | 1 | 
COc1ccc(OC)c2c1CN(c1nc(CN3CCOCC3)nc3sc(C)c(C)c13)CC2O (stereo not drawn) [Compound Z128154998] | 47 | -4
O=C(CSc1nnc(-c2c[nH]c3ccccc23)n1-c1ccc(Cl)cc1)N1CCNC1=O [Compound Z19511505] | 13 | 
COc1ccc(/C=C2/CCCc3c2nc2ccccc2c3C(=O)O)cc1 [Compound Z46035754] | 9 | 
C=CCn1c(SCc2cc(=O)n3ccsc3n2)nnc1-c1ccncc1 [Compound Z24172012] | 4 | 
Cl.N#Cc1ccc(-c2cc(-c3ccccc3Cl)c3cc(Cl)ccc3n2)cc1 [Compound Z48951737] | 1 | 
COc1ccccc1NC(=O)c1ccc(NC(=O)COc2ccc(-c3nc(C)cs3)cc2)cc1 [Compound Z99004386] | 5 | 
Cn1c(=O)[nH]c(=O)c2c1nc(CN1CCN(c3cccc(Cl)c3)CC1)n2CCCc1ccccc1 [Compound Z238883342] | -1 | 

The next lines start with the values.

First screening IR (inhibition rate) [%] | Second screening IR (inhibition rate) [%] | Compound
-7 |  | Cc1ccc(-n2cnc3c2CCNC3)cc1 [Compound Z1250487636]
8 |  | O=C(Nc1cccc(OCCn2cccn2)c1)NC1CCSCC1 [Compound Z987964770]
32 |  | CCS(=O)(=O)c1ccc(S(=O)(=O)N2CCCSCC2)cc1 [Compound Z736543988]
5 |  | CCN(CC)Cc1ccc(C(=O)N2CCC3(C2)NC(=O)NC3=O)cc1 (stereo not drawn) [Compound Z1233805260]
2 |  | O=C(c1cc(C2CC2)[nH]n1)N1CCC(=Cc2cc(Cl)ccc2Cl)CC1 [Compound Z1432870591]
12 |  | Cc1cc(NCc2cn3cccnc3n2)c(C(N)=O)cc1F [Compound Z1430011273]
4 |  | O=C(CCc1ccsc1)Nc1cc(C(F)(F)F)c[nH]c1=O [Compound Z432185696]
4 |  | O=C(Nc1n[nH]c(-c2ccccn2)n1)c1ccc(-n2cccn2)c(F)c1 [Compound Z1128365659]
13 |  | CCn1nc(NCc2cn[nH]c2-c2ccc(C)o2)cc1C1CC1 [Compound Z1421828757]
-7 |  | O=C(Nc1c[nH]ccc1=O)c1ccc2c(c1)CC(c1ccccc1)OC2=O (stereo not drawn) [Compound Z649184702]
23 |  | Cc1c(C(=O)Nc2cnn(C)c2)c(=O)[nH]c2ccccc12 [Compound Z1343740230]
5 |  | CS(=O)(=O)c1cccc(S(N)(=O)=O)c1 [Compound Z299680982]
8 |  | Clc1ccc(C2=NN/C(=N/c3ccccn3)SC2)s1 [Compound Z1446648080]
23 |  | O=C(Nc1cccc(S(=O)(=O)NC2=NCCCCC2)c1)C1(c2cccc(Cl)c2)CC1 [Compound Z316438002]
44 |  | CN(CCCC(=O)O)S(=O)(=O)c1cc(S(C)(=O)=O)ccc1Cl [Compound Z353969056]
-1 |  | Cc1ccc(-c2nc(N)sc2C)s1 [Compound Z381381388]
13 |  | CNC1CCN(C(=O)c2ccc3c(c2)ncn3C(C)C)C1.Cl.Cl (stereo not drawn) [Compound Z1455845707]
7 |  | N#CCOc1ccc(Nc2nccc(C(F)(F)F)n2)cc1 [Compound Z318833320]
-9 |  | CCOCCCn1c(NC(=O)c2ccc3c(c2)CCN3C(C)=O)nc2ccccc21 [Compound Z1090594860]
10 |  | CCCn1c(NC(=O)c2ccc3c(c2)S(=O)(=O)N(C(C)C)C3=O)nc2ccccc21 [Compound Z641940000]
26 |  | Cc1ccc(S(C)(=O)=O)cc1S(N)(=O)=O [Compound Z385450636]
1 |  | Cc1ccnc(NC(=O)C2CCN(c3ccc(C#N)cc3F)CC2)c1 [Compound Z1002220042]
-7 |  | CCc1ccc(CNc2cccc(NC(=O)OCCOC)c2)o1 [Compound Z1420504830]
-1 |  | Cn1c2ccccc2n2c3cccc(F)c3c(=O)c(C#N)c12 [Compound Z734467112]
-11 |  | O=C(Nc1ccc(F)cc1)NC1CCN(c2ncnc3nc[nH]c23)C1 (stereo not drawn) [Compound Z1193297141]
5 |  | CC(NC(=O)Cn1nc(-c2ccccc2)ccc1=O)c1nc2ccccc2[nH]1 (stereo not drawn) [Compound Z647256318]
52 |  | CN(CC1CC1)c1ccc(S(C)(=O)=O)cc1S(C)(=O)=O [Compound Z666145136]
2 |  | N#Cc1cnc(NCCC(=O)N2CCc3sccc3C2)c(Cl)c1 [Compound Z1039090738]
1 |  | Cc1ccc(NC(=O)c2ccc(N3CC(O)=C(c4nc5ccccc5s4)C3=N)cc2)c(O)c1 [Compound Z425227654]
21 |  | CN(C)c1ccc(-c2cncc(C(=O)NCC3CC=CCC3)c2)cc1 (stereo not drawn) [Compound Z1418841673]
